Test results published in patent US20250042968A1, “EPHRIN LIGAND MIMETIC PEPTIDES FOR THE TREATMENT OF NEURODEGENERATIVE DISEASES” (University of Miami, priority 2022, published 2025).
“Also recorded” adds a separate entry of the source.

Legend:
[1] = system: isolated mouse RGCs; test: Neurite sprouting and extension assay, short-term (48 h); type: cell-based
Experimental: (§1) Mouse retinal ganglion cells (RGC): Mouse R GCs were isolated as follows. Briefly, retinas from postnatal day 8-10 (p8-10) mouse pups were dissected and digested using a papain solution (16.5 U/mL) for 30 minutes at 37° C. Following dissociation, macrophage and endothelial cells were removed from the cell suspension by panning with the anti-macrophage antiserum (Accurate Chemical, Westbury, NY). Finally, RGCs were immunopanned in plates containing the antibody against Thy1.2 and were then released by incubation with trypsin solution. RGCs were grown on poly-L-lysine coated plates in serum-free Neurobasal media (Invitrogen, Carlsbad, CA), supplemented with B-27 supplement, CNTF (10 ng/ml), and BDNF (10 ng/ml).
(§2) mRGCs were used to analyze dendrite sprouting, axonal polarization and extension, and ephrin receptor phosphorylation following treatment with xEFN peptides. RGCs were isolated as described above and plated onto 24 well plates at a concentration of 4×10^4 cells/well for short-term (48 h) experiments, or into 96-well plates at a concentration of 1,000 cells/well for long-term (6 days) experiments in an Incucyte Zoom (Essen Biosciences) instrument for live cell imaging. […] For the short-tem experiment, cells were fixed in 4% paraformaldehyde for 5 minutes, permeabilized using 0.05% Triton X-100, blocked with 5% fetal bovine serum, and incubated with primary antibody against Tubulin Beta 3 Class III (TUBB3) overnight at 4° C. Cells were then washed 3×5 min with PBS and incubated with AlexaFluor488 secondary antibody for 2 h at room temperature. Cells were mounted using SlowFade Gold Antifade mounting media with DAPI (ThermoFisher) and imaged using an EVOS FL automated fluorescent microscope (ThermoFisher). Dendrite measurements and analysis was performed by a blinded investigator using ImageJ software and the Sholl analysis plugin. […] Neurite sprouting and extension were quantified using the automated Incucyte Zoom NeuroTrack Processing algorithm for real-time, label-free neurite segmentation and quantitation (FIG. 13).

[2] = system: isolated mouse RGCs; test: Neurite outgrowth, long-term (6 days), Incucyte Zoom live cell imaging; type: cell-based
Experimental: as §1, with “Briefly, retinas from postnatal day 8-10 (p8-10) mouse pups were dissected and digested using a papain solution (16.5 U/mL) for 30 minutes at 37° C.” left out
as §2

[3] = system: ARHGEF15 (Ephexin-5); test: Western blot of ARHGEF15 in mRGCs; type: cell-based, mouse; conditions: 500 nM
Experimental: On day 4, cells were treated with pre-clustered recombinant mouse EfnA5-His ligand [(+) Control, using anti-His_Tag antibody for 30 minutes] for 2 hours. Cells were then lysed in RIPA buffer containing protease and phosphatase inhibitor cocktails and maintained on ice. Protein was quantified using a BCA assay, and 10 μg of total protein was run on a TGX stain-free Any kD gel (BioRad) and transferred using the trans-blot turbo system (BioRad). Following transfer and blocking in 5% nonfat milk for 1 h, blots were probed with antibodies against RhoA, phosphorylated Rac1, ARHGEF15, Ephexin-1, or beta-actin as an endogenous loading control overnight at 4° C. Blots were then washed 3×5 min in PBS-T and incubated in the appropriate HRP-conjugated secondary antibody for 2 h at room temperature. Blots were imaged using chemiluminescent ECL substrate (Pierce) on a BioRad ChemiDoc MP imaging system and software.

[4] = target: T1, EphA2 (Mus musculus, UniProt Q03145); test: Immunohistochemistry of TUBB3 and pEphA2 receptor in RGCs; type: cell-based; conditions: 500 nM, 4 days
T1 construct: endogenous in cells; host or cells: primary mouse retinal ganglion cells (p8-10 pups)

[5] = target: T1, EphA2; test: Western blot of EphA2 expression in isolated mouse RGCs; type: cell-based; conditions: 1 μM, 4 days
Source text: (§3) In order to assess the effect of xEFN peptide supplementation on Eph-receptor modulation, various in vitro assays were employed on isolated mouse RGCs. […] Similarly, xEFN_RBD1, and 3 inhibited the phosphorylation of Rac1 by pre-clustered ephirnA5 ligand stimulation. […] TUBB3 is a marker specific for neuronal microtubules and functions as a neuronal-specific marker.

[6] = system: RGCs and visual function after optic neuropathy onset; test: Ultrasonic shockwave optic nerve injury model (SI-TON): RGC survival, PERG, flash ERG; type: in vivo, mouse
Experimental: In this example, the effect of xEFN peptide administration on the visual function of mice in an animal model that more closely resembled the human manifestation and progression of visual dysfunction following the onset of optic neuropathy was assessed. […] Visual function was measured at 2 and 4 weeks post optic nerve injury in all groups using pattern electroretinogram (PERG) to measure RGC function, as well as flash electroretinogram (ERG) to assess rod and cone functionality.

[7] = system: isolated mouse RGCs; test: Immunofluorescent staining of TUBB3 and F-actin in isolated mouse RGCs; type: cell-based; conditions: 1 μM, 4 days
Source text: as §3

[8] = supplemented RGC cultures, 48 h

T1 sequence (Q03145 26-977): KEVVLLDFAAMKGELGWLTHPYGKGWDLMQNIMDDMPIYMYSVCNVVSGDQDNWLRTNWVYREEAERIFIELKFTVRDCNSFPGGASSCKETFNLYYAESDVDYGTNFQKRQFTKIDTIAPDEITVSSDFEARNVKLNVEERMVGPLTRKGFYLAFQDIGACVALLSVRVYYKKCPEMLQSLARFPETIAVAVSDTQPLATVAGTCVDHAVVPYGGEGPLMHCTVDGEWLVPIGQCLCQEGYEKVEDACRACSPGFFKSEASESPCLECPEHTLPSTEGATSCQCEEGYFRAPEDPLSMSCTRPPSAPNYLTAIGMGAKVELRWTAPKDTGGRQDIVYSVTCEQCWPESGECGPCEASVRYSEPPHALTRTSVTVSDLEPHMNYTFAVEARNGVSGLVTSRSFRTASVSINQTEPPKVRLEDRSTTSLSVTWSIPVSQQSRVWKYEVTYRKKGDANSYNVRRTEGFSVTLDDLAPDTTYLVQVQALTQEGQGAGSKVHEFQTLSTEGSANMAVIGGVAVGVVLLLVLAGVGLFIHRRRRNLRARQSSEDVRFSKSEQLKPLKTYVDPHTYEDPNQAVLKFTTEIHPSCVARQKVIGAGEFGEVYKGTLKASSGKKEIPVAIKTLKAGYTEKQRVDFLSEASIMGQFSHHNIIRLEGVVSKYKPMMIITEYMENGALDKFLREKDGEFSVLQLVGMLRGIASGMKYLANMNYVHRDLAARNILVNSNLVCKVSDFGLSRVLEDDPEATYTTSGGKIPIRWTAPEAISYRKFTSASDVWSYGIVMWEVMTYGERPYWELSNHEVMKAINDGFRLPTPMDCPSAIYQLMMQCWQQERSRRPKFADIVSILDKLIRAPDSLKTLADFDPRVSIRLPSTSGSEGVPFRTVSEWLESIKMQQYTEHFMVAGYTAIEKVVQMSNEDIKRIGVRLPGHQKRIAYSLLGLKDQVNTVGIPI

FTIKFQEFSPNLWGL [xEFN_RBD3]
average axonal length ([1]; 500 nM, 48 h of culture, compared to vehicle (PBS) treated controls): 302.16+/−40.24%
axonal extension ([1]; isolated RGCs): significantly increases
dendritic arbor complexity ([1]; isolated RGCs): significantly increases
neurite sprouting ([1]; isolated RGCs): significantly increases
average neurites/RGC soma [1, 8]: 3.43+/−0.16 neurites/RGC
median total neurite length [1, 8]: 1034.68 (range: 486.26-2759.84) μm/cell
neurite outgrowth compared to 1 μM xEFN_F1 peptide ([2]; 1 μM, 6-day period): significantly increased
neurite length over control cultures ([2]; 1 μM, after 32 hours of culture): statistically-significant increase
increase in overall neurite length over day 0 measurement ([2]; 1 μM, end of 6-day period): 424.68+/−4.47%
neurite outgrowth compared to EphB2- or EphB4-restricted targeting peptides SNEW and TYFD ([2]; equal concentrations): statistically significant increase
ARHGEF15 (Ephexin-5) level [3]: decrease
dendritic density (immunohistochemistry) [4]: increase dendritic density
phosphorylation of the EphA2 receptor (immunohistochemistry) [4]: reduced phosphorylation
expression of EphA2 (western blot) [5]: reduced expression; also recorded: effectively decreased expression
PERG amplitude over baseline recordings ([6]; 2 weeks post optic nerve injury): decline
visual response versus vehicle (PBS) treated animals ([6]; 4 week assessment): significantly better
RGC survival compared to vehicle treated controls ([6]; 4 weeks post injury): significant survival effect
visual function (PERG) at the 4 week assessment ([6]; 4 weeks post optic nerve injury): improved
neuroprotection seen by TUBB3 expression versus control in vitro cultures [7]: neuroprotection; also recorded: effectively preserved RGCs
